Measured values published in ChEMBL document CHEMBL3091440, “Heptaoxygenated xanthones as anti-austerity agents from Securidaca longepedunculata” (2013).
Activity calls are given as the source filed them. The calls are words filed in the database; no cut-off is given here.

How the values were obtained:
PANC-1 [1] = experiment: (§1) Cytotoxicity against human PANC1 cells assessed as cell viability after 24 hrs by WST8 assay; assay type: functional
[2] = as §1; assay type: functional, PANC-1
PANC-1 [3] = experiment: Induction of apoptosis in human PANC1 cells grown in glucose deprived medium after 24 hrs by phase contrast microscopy; assay type: functional, cell-based
PANC-1 [4] = experiment: Induction of apoptosis in human PANC1 cells at 50 uM after 24 hrs by phase contrast microscopy; assay type: functional, cell-based
PANC-1 [5] = experiment: Induction of apoptosis in human PANC1 cells at 50 uM after 24 hrs by Annexin V/propidium iodide staining-based fluorescence microscopy; assay type: functional, cell-based
PANC-1 [6] = experiment: Induction of apoptosis in human PANC1 cells grown in glucose/amino acid deprived medium after 24 hrs by phase contrast microscopy; assay type: functional, cell-based

SMILES	Activity (PANC-1 [1])	PC50 [2] [µM]	Activity (PANC-1 [3])	Activity (PANC-1 [4])	Activity (PANC-1 [5])	Activity (PANC-1 [6])
COc1cc(O)c2c(=O)c3c(OC)c(OC)c(OC)c(O)c3oc2c1OC	Dose-dependent effect	>100	–	–	–	–
COc1cccc(O)c1C(=O)OCc1ccccc1	Dose-dependent effect	>100	–	–	–	–
COc1cccc(O)c1C(=O)O	Dose-dependent effect	>100	–	–	–	–
COc1cc(C[C@H]2C(=O)OC[C@@H]2Cc2ccc(OC)c(OC)c2)ccc1O [ARCTIGENIN]	–	0.5	–	–	–	–
COc1cc(OC)c2c(=O)c3c(OC)c(OC)ccc3oc2c1OC	Dose-dependent effect	93.6	–	–	–	–
COc1cccc(C(=O)c2ccc(O)cc2O)c1	Dose-dependent effect	>100	–	–	–	–
COc1cc(OC)c2c(=O)c3ccc(O)c(O)c3oc2c1	Dose-dependent effect	>100	–	–	–	–
COc1c(OC)c(O)c2c(=O)c3c(OC)cc(O)c(OC)c3oc2c1OC	Dose-dependent effect	17.4	Dose-dependent effect	inactive	Active	–
COc1cc(O)c2c(=O)c3c(OC)c(O)ccc3oc2c1OC	Dose-dependent effect	87.4	–	–	–	–
COc1ccc2oc3ccc(O)c(OC)c3c(=O)c2c1O	Dose-dependent effect	51.4	–	–	–	–
COc1cc(OC)c(C(=O)c2ccccc2)cc1OC	Dose-dependent effect	>100	–	–	–	–
COc1cc2oc3cccc(OC)c3c(=O)c2cc1OC	Dose-dependent effect	>100	–	–	–	–
COc1c(O)cc2oc3ccccc3c(=O)c2c1O	Dose-dependent effect	81.2	–	–	–	–
COc1cc(O)c2c(=O)c3cc(O)ccc3oc2c1	Dose-dependent effect	>100	–	–	–	–
COc1c(C(=O)c2ccccc2)ccc2c1OCO2	Dose-dependent effect	>100	–	–	–	–
COc1c(O)ccc(C(=O)c2ccccc2)c1OC	Dose-dependent effect	81.3	–	–	–	–
O=c1c2ccc(O)cc2oc2cccc(O)c12	Dose-dependent effect	>100	–	–	–	–
COc1c(OC)c(OC)c2c(=O)c3c(O)cc(O)c(OC)c3oc2c1O	Dose-dependent effect	>100	–	–	–	–
COc1ccc2oc3cccc(O)c3c(=O)c2c1	Dose-dependent effect	42.7	–	–	–	–
COc1cc(OC)c2c(=O)c3c(OC)c(O)ccc3oc2c1	Dose-dependent effect	>100	–	–	–	–
O=c1c2ccc(O)c(O)c2oc2cccc(O)c12	Dose-dependent effect	>100	–	–	–	–
COc1c(O)ccc(C(=O)c2ccccc2)c1O	Dose-dependent effect	>100	–	–	–	–
COc1cc(OC)c2c(=O)c3ccc(O)c(OC)c3oc2c1	Dose-dependent effect	93.1	–	–	–	–
COc1c(O)cccc1C(=O)OCc1ccccc1	Dose-dependent effect	>100	–	–	–	–
CC(=O)O[C@H]1C(=O)[C@@]2(C)[C@H]([C@H](OC(=O)c3ccccc3)[C@]3(O)C[C@H](OC(=O)[C@H](O)[C@@H](NC(=O)c4ccccc4)c4ccccc4)C(C)=C1C3(C)C)[C@]1(OC(C)=O)CO[C@@H]1C[C@@H]2O [PACLITAXEL]	–	>100	–	–	–	–
COc1cc(O)c2c(=O)c3c(OC)cc(OC)cc3oc2c1	Dose-dependent effect	>100	–	–	–	–
COc1cc(O)c2c(=O)c3c(OC)c4c(c(OC)c3oc2c1OC)OCO4	Dose-dependent effect	78.1	–	–	–	–
COc1cc(O)c2c(=O)c3c(OC)c(OC)ccc3oc2c1OC	Dose-dependent effect	73.3	–	–	–	–
COc1c(OC)c(O)c2c(=O)c3c(O)cc(O)c(OC)c3oc2c1OC	Dose-dependent effect	22.7	–	inactive	Active	Dose-dependent effect
COc1ccc2oc3cc(O)cc(OC)c3c(=O)c2c1OC	Dose-dependent effect	>100	–	–	–	–
